Read-outs that look alike come from different tables or passages of the source.
Columns and labels:
enkephalinase = test: Dosage of enkephalinasic (enkephalin dipeptidylcarboxypeptidasic) activity, effect of the inhibitors (striatal membrane fraction); format: biochemical, rat or mouse; settings: 10 nM leucine-enkephalin ^3H, 0.1 mM puromycine, pH 7.4, 25° C, 15 min; read-out: 50% inhibitory concentration
Description: (I) Dosage of the "enkephalinasic" activity (enkephalin dipeptidylcarboxypeptidasic) and determination of the effect of the inhibitors
The enzyme preparation employed is a membrane fraction from the striatum of the rat or mouse.
This fraction is obtained by homogenization at 4° C. in 20 volumes of Tris-Hl buffer 0.05M (pH 7.4) followed by two successive centrifugations (1000 g×min. and 200,000 g×min.) at the end of which the sediment of the second centrifugation is retained. It is washed by resuspension in 10 ml of the buffer followed by centrifugation (200,000 g×min.) and the resulting sediment is in turn washed superficially to complete the removal soluble enzymes. The resulting membrane fraction is taken up into the buffer at 4° C. to obtain a suspension comprising about 1.5 mg of proteins per ml.
An aliquot sample (50 μl) of the membrane suspension is then incubated in a final volume of 100 μl at 25° C. in the presence of 10 nM leucine-enkephalin ^3 H (39 Ci/mmole), previously purified by column chromatography over Porapak Q(100-120 mesh, Waters Assoc.) and 0.1 mM puromycine, an aminopeptidase inhibitor. The incubation time is generally set at 15 min. so as to determine the initial rate of formation of tripeptide Tyr-Gly-Gly-^3 H caracteristic of the enkephalin dipeptidylcarboxypeptidasic (enkephalinasic) activity. The reaction is terminated by the addition of 25 μl of 0.2N HCl and the tripeptide is isolated by column chromatography over Polopak Q or on a thin layer of silica, according to the methods described by Malfroy et al (B. Malfroy, J. P. Swerts, C. Llorens and J. C. Schwartz, Neuro-Science Letters, 11, 329, 1979).
The results obtained with either method have always been consistent.
Determination of the radioactivity of the tripeptide is effected by liquid scintillation spectrometry.
The effect of the inhibitors is established by experiments with increasing concentrations of such materials, which leads to the determination of the 50% inhibitory concentrations calculated by means of data according to the method of Parker and Waud (J. Pharmacol. Exper. Ther. 177, 1, 1971). In some cases, the competitive nature of the inhibition was established by incubation experiments with a fixed concentration of the inhibitor and increasing concentrations of the substrate.

[1] = test system: licking reflex of mice on a plate heated at 55° C; test: Hot plate test: potentiation of the antalgic effect of D Ala2 Met Enkephalin; format: in vivo; settings: for antagonism of the potentiating effect by Naloxone / potentiation of the effect of a subactive dosage (0.3γ) of D Ala2 Met Enkephalin: 30γ, in words; for potentiation of the effect of a subactive dosage (0.3γ) of D Ala2 Met Enkephalin: p<0.05; for increase in the licking time with respect to animals treated with DAla2 Met Enkephalin (0.3γ intraventricular): 30 mg/kg intravenous
Description: (§1) Licking reflex of mice on a plate heated at 55° C. according to the method of Jacob et co-workers (Arch. Int. Pharmacodyn. 122, 287-300, 1959: 133, 296-300, 1961).
(a) Potentiation of the antalgic effect of DAla2 Met Enkephalin:
(α) By the intraventricular route (ivt):
(β) By the intravenous route:
When administered by the intravenous route, the derivatives No. 2, 30 and 63 at the dose of 30 mg/kg produce a 100% increase in the licking time with respect to animals treated with DAla2 Met Enkephalin (0.3γ intraventricular).

[2] = test system: (Met^5) enkephalin liberated by depolarisation of striatum sections; test: Protection of endogenic enkephalins liberated by depolarisation of striatum sections; format: cell-based, rat; settings: for (Met^5) liberated enkephalin: 50 mM KCl, no inhibitor: 120 ± 25
Description: (II) Protection of the endogenic […] liberated by depolarisation of the brain sections
Stratium sections of the rat are incubated in a medium of Krebs-Ringer and the (Met^5) enkephalin liberated by addition of 50 mM KCl is evaluated by radioimmunologic dosage (Patey and Coll., Science, 1981, 212, 1153-1155).
The higher protection of the liberated enkephalins afforded by these compounds is thence attributed to the inhibition of peptidases (probably aminopeptidases) other than those which are sensitive to thiorphan.

mice = test: Subacute toxicity, intraperitoneal, three weeks
Description: The derivative 63 was administered by the intraperitoneal route for three weeks to mice at the dose of 50 mg/kg three times a day (150 mg/kg/day).

[3] = test system: phenylbenzoquinone-induced pain; test: Phenylbenzoquinone or "writhing" test; format: in vivo, mouse; settings: for protection from phenylbenzoquinone-induced pain: p<0.01 versus controls
From the text: (3) Phenylbenzoquinone or "writhing" test according to the method of Siegmund and co-workers (Proc. Soc. Expert Biol. Med. 1957, 95, 729-731).
Here again, if the antinociceptive effects of these compounds are compared with those of Thiorphan, a selective enkephalinase-inhibitor, a distinctly greater maximum effect is observed. […] This more pronounced analgesic effect is attributable to an improved protection of the endogenic opioid peptides, in relation with the inhibition not only of the enkephalinase, but also of the aminopeptidases involved in their hydrolysis.

immobile periods of mice = settings: 1 mg/kg i.v.; p<0.001; in words
From the text: Forced swimming or "Mice Despair" test according to Porsolt's method.
This test is representative of an antidepressive effect.

[4] = test system: withdrawal of the tail of mice; test: Withdrawal of the tail immersed in water heated to 48° C; format: in vivo
Description: (2) Test in mice of the withdrawal of the tail immersed in water heated to 48° C. according to the method of Sewell and Spencer (Neuropharmacology, 1976, 15, p. 683-688).

blood pressure = settings: 10 mg/kg intravenous; in words
From the text: (VI) Hypotensive Activity
Specific enkephalin-potentiating activity, (Laubie M. Schmith H., Vincent M., Remon D. Central cardiovascular effects of Morphinometic peptides in dogs. European Journal of Pharmacology, vol. 46, 67-71, 1977).

[5] = test system: licking reflex of mice on a plate heated at 55° C; test: Hot plate test: specific antalgic effect; format: in vivo; settings: for antalgic effect in the hot plate test: 55° C, intravenous, in words; for ED50: hot plate 55° C, i.v.
Description: as §1
(b) Specific antalgic effect
By the intravenous route.

[6] = 30 γ/mouse ivt, D Ala2 Met Enkephalin 0.3 γ/mouse
[7] = 30 mg/kg intravenous, DAla2 Met Enkephalin 10 to 30γ/mouse ivt 15 minutes later

## O=CN(O)CC(Cc1ccccc1)NC(=O)CC(=O)O (stereo not drawn) [Derivative 69]
enkephalinase
  IC50: 7 nM

## N-[2-(N-hydroxy carbamoyl) 3-phenyl propanoyl]-glycine methyl ester [Derivative 30]
[1]; intraventricular
  antagonism of the potentiating effect by Naloxone: antagonised by Naloxone
  potentiation of the effect of a subactive dosage (0.3γ) of D Ala2 Met Enkephalin: significantly potentiated
[1]; [6]
  % increase in the licking time with respect to animals treated with D Ala2 Met enkephalin: 320%
[2]; added inhibitor 10^-7 M
  (Met^5) liberated enkephalin: 600 ± 30 pmol/g/min
enkephalinase
  IC50: 3 nM

## COC(=O)CC(=O)NC(Cc1ccccc1)NP(=O)(O)O (stereo not drawn) [Derivative 4, N-phosphoryl, N'-(2-methoxycarbonylacetyl) 1,1-diamino 2-phenyl ethane]
enkephalinase
  IC50: 100 nM

## D Ala2 Met Enkephalin [reference compound]
[1]; 0.3 γ/mouse, intraventricular
  activity of D Ala2 Met Enkephalin alone: inactive in itself

## O=CN(O)CC(Cc1ccccc1)C(=O)NCC(=O)NCc1ccc(F)cc1 (stereo not drawn) [Derivative 63, N-(N-hydroxy 3-formamido 2-benzylpropanoyl)-glycine p-fluoro benzylamide]
mice; 50 mg/kg i.p. three times a day (150 mg/kg/day)
  weight increase rate and signs of toxicity: did not exhibit any change in the weight increase rate or any sign of toxicity
mice; 50 mg/kg i.p. three times a day, versus solvent controls
  weight of the organs and anatomic-pathologic examination: no difference

## O=CN(O)CC(Cc1ccccc1)NC(=O)CC(=O)NCc1ccccc1 (stereo not drawn) [Derivative 71]
enkephalinase
  IC50: 200 nM

## O=C(O)CNC(=O)C(CS)Cc1ccccc1 (stereo not drawn) [Thiorphan, reference compound]
[2]; added inhibitor 10^-7 M
  (Met^5) liberated enkephalin: 280 ± 30 pmol/g/min
[2]; in words, presence of thiorphan
  recovery of the pentapeptide: approximately doubled
[3]; in words, thiorphan even at a heavy dose
  elimination of the abdominal stretchings of the mouse: never completely eliminates the abdominal stretchings

## N-[2-(N-hydroxy β-trifluoroethyl carboxamido)3-phenyl propanoyl]-glycine [Derivative 53]
[1]
  increase in the licking time with respect to animals treated with DAla2 Met Enkephalin (0.3γ intraventricular): 100%
Immobile periods of mice
  duration (in seconds) of the immobile periods with respect to the controls: significantly reduces
[4]; 5 mg/kg
  potentiation of DAla2 Met Enkephalin: also observed
Blood pressure
  reduction in the blood pressure: reduction in the blood pressure
[3]; 1 mg/kg i.v.
  protection from phenylbenzoquinone-induced pain: protect the treated animals from phenylbenzoquinone-induced pain
[3]; in words
  antagonism of the protective effect by Naloxone: antagonized by Naloxone
enkephalinase
  IC50: 50 nM
[5]
  antalgic effect in the hot plate test: have an antalgic effect
  ED50: 3 mg/kg

## COC(=O)CNC(=O)[C@H](Cc1ccccc1)NP(=O)(O)O [Derivative 2, N-phosphoryl L-phenylalanine-glycine methyl ester]
[1]
  increase in the licking time with respect to animals treated with DAla2 Met Enkephalin (0.3γ intraventricular): 100%
[4]; [7]
  potentiation of DAla2 Met Enkephalin: potentiate very significantly
[3]; 15 mg/kg i.v.
  protection from phenylbenzoquinone-induced pain: protect the treated animals from phenylbenzoquinone-induced pain
[3]; in words
  antagonism of the protective effect by Naloxone: antagonized by Naloxone
enkephalinase
  IC50: 70 nM
[5]
  antalgic effect in the hot plate test: have an antalgic effect
[5]; Mus musculus, iv, read-out: ED50
  ED50: 30 mg/kg

## N-(2-bensyloxyamino 3-phenyl propanoyl)-glycine isoamylamide [Derivative 22]
[1]
  increase in the licking time with respect to animals treated with DAla2 Met Enkephalin (0.3γ intraventricular): 100%
[4]; [7]
  potentiation of DAla2 Met Enkephalin: potentiate very significantly
[3]; 18 mg/kg i.v.
  protection from phenylbenzoquinone-induced pain: protect the treated animals from phenylbenzoquinone-induced pain
[3]; in words
  antagonism of the protective effect by Naloxone: antagonized by Naloxone
enkephalinase
  IC50: 100 nM
[5]
  antalgic effect in the hot plate test: have an antalgic effect
  ED50: 18 mg/kg

## N-[2-(N-hydroxy carbamoyl 3-phenyl propanoyl]-glycine [Derivative 32]
enkephalinase
  IC50: 5 nM

## N-phorphoryl L-alanine-thioproline trifluoroethyl ester [Derivative 21]
[1]; intraventricular
  antagonism of the potentiating effect by Naloxone: antagonised by Naloxone
  potentiation of the effect of a subactive dosage (0.3γ) of D Ala2 Met Enkephalin: significantly potentiated
[1]; 30 γ/mouse ivt + D Ala2 Met Enkephalin 0.3 γ/mouse + Naloxone 10 mg/kg s.c.
  % increase in the licking time with respect to animals treated with D Ala2 Met enkephalin: 18%
[1]; [6]
  % increase in the licking time with respect to animals treated with D Ala2 Met enkephalin: 350%
[2]; added inhibitor 10^-6 M
  (Met^5) liberated enkephalin: 550 ± 40 pmol/g/min
enkephalinase
  IC50: 8 nM

## N-(N-benzyloxy 3-formamido 2-benzyl propnaoyl)-glycine methyl ester [Derivative 39]
[1]; [6]
  % increase in the licking time with respect to animals treated with D Ala2 Met enkephalin: 300%
[2]; added inhibitor 10^-7 M
  (Met^5) liberated enkephalin: 630 ± 50 pmol/g/min
enkephalinase
  IC50: 3 nM
[5]
  ED50: 25 mg/kg

Reference: US4738803A, “Amino acid derivatives and their use as antidepressives and hypotensive agents” (priority 1981, dated 1988)
